# Measurements taken from the RepoRT retention time repository (doi:10.1016/j.jhazmat.2019.121712).
# Assay: Thermo Scientific Acclaim RSLC 120 C18, 100 × 2.1 mm, 2.2 µm, 30 °C; A: 90% water + 10% methanol + 0.01% formic acid + 5 mM ammonium formate; B: methanol + 0.01% formic acid + 5 mM ammonium formate; gradient (min/%B) 0.1/1 3/39 14/99.9 16/99.9
# Details: stereoisomer not certain
row,Compound,LC retention time
1,CC1(C)C(C(=O)OC(C#N)c2cccc(Oc3ccccc3)c2)C1(C)C (stereo unspecified),12.9 min
2,COc1ccc2c(c1)C13CCCCC1C(C2)N(C)CC3 (stereo unspecified),6.51 min
3,CCC(=O)OC(Cc1ccccc1)(c1ccccc1)C(C)CNC (stereo unspecified),7.84 min
4,CC1CC2C(C(O)CC3(C)C2CCC3(O)C(=O)CO)C2(C)C=CC(=O)C=C12 (stereo unspecified),8.75 min
5,COc1ccc(C(C[N+](C)(C)[O-])C2(O)CCCCC2)cc1 (stereo unspecified),6.94 min
6,NN1CC(=O)N2C(Cc3c([nH]c4ccccc34)C2c2ccc3c(c2)OCO3)C1=O (stereo unspecified),7.84 min
7,CN1CCCCC1Cn1cc(C(=O)c2cccc3ccccc23)c2ccccc21 (stereo unspecified),8.09 min
8,COc1cc(OC)nc(NC(=O)NS(=O)(=O)c2cc(NC=O)ccc2C(=O)N(C)C)n1,7.54 min
9,COc1cccc(C(=O)NN(C(=O)c2cc(C)cc(C)c2)C(C)(C)C)c1C,9.56 min
10,CCN(C)C(=O)Oc1cccc(C(C)N(C)C)c1 (stereo unspecified),4.74 min
11,CCCCOc1ccc(CC(=O)NO)cc1,7.83 min
12,CCOP(=S)(OCC)SCn1nnc2ccccc2c1=O,10.2 min
13,O=C1CC2OCC=C3CN4CCC56c7ccccc7N1C5C2C3CC46 (stereo unspecified),4.16 min
14,CNC(=O)ON=C(C)C(C)SC (stereo unspecified),6.07 min
15,CCCCCn1nc(C(=O)NC(C(N)=O)C(C)C)c2ccccc21 (stereo unspecified),10.5 min
16,CNC(=N[N+](=O)[O-])NCC1CCOC1 (stereo unspecified),3.59 min
17,CCn1cc(C(=O)O)c(=O)c2cc3c(cc21)OCO3,6.03 min
18,CCCC(C)(COC(N)=O)COC(N)=O,5.94 min
19,CC=C1CC(C)C(C)(O)C(=O)OCC2=CCN3CCC(OC1=O)C23 (stereo unspecified),4.62 min
20,CCCCCn1cc(C(=O)NC23CC4CC(CC(C4)C2)C3)c2ccccc21,13.2 min
21,C=CCC(C(=O)NC(N)=O)C(C)C (stereo unspecified),6.94 min
22,CCCC(C(=O)c1ccccc1)N1CCCC1 (stereo unspecified),5.08 min

# Now from value to molecule:
row,LC retention time,Compound
1,6.36 min,COCC(C)N(C(=O)C(=O)O)c1c(C)csc1C (stereo unspecified)
2,4.59 min,CCN(CC)CC(=O)Nc1c(C)cccc1C(=O)OC
3,8.34 min,CN(C)C(CCOc1cccc2ccccc12)c1ccccc1 (stereo unspecified)
4,5.18 min,COC(=O)CCc1ccc(OCC(O)CNC(C)C)cc1 (stereo unspecified)
5,11.1 min,CC(C)c1nc(CN(C)C(=O)NC(C(=O)NC(Cc2ccccc2)CC(O)C(Cc2ccccc2)NC(=O)OCc2cncs2)C(C)C)cs1 (stereo unspecified)
6,3.5 min,CCCOC(=O)NCCCN(C)C
7,7.01 min,CCCc1nn(C)c2c(=O)[nH]c(-c3cc(C(=O)CN4CCN(CC)CC4)ccc3OCC)nc12
8,3.28 min,c1ccc(CC2=NCCN2)cc1
9,6.71 min,CN1C(=O)CC(C)(c2ccccc2)C1=O (stereo unspecified)
10,7.25 min,Cc1ccc(NS(=O)(=O)N(C)C)cc1
11,4.69 min,CCCNC(C)C(=O)Nc1ccccc1C (stereo unspecified)
12,7.23 min,Cc1c(C(C)C)c(=O)n(-c2ccccc2)n1C
13,2.41 min,CN1CCCC1c1cccnc1 (stereo unspecified)
14,10.3 min,CCCc1nc2c(C)cc(-c3nc4ccccc4n3C)cc2n1Cc1ccc(-c2ccccc2C(=O)O)cc1
15,7.47 min,CC(=O)c1ccc2c(c1)N(CCCN(C)C)c1ccccc1S2
16,1.38 min,CNCC(O)c1ccc(O)c(O)c1 (stereo unspecified)
17,8.12 min,Cc1ccc(C2(c3ccccc3)NC(=O)NC2=O)cc1 (stereo unspecified)
18,7.14 min,CCCc1nn(C)c2c(=O)[nH]c(-c3cc(C(=O)CN4CCCCC4)ccc3OCC)nc12
19,6.36 min,CCCc1cc(C(N)=S)ccn1
20,2.98 min,Nc1nc2c(ncn2CCC(CO)CO)c(=O)[nH]1
21,4.99 min,OCCOCCN1CCN(C2=Nc3ccc(O)cc3Sc3ccccc32)CC1
22,7.41 min,CC(=O)Nc1ccc(OC(=O)c2ccccc2OC(C)=O)cc1
23,4.4 min,C1COC(NC(C2CC2)C2CC2)=N1
24,9.19 min,CCCSc1ccc2nc(NC(=O)OC)[nH]c2c1
